Source: patent publication US20250312493A1, “FLUOROPHORE-LOADED GELATIN-BASED NANOPARTICLES FOR NEAR-INFRARED IMAGING” (The Board of Trustees of the University of Illinois, priority 2022, published 2025)

Assays:
4T1 tumor = assay: In vivo NIR fluorescence imaging, tumor to background ratio; design: species or system mice
Description: Animal tumor model: Female immunodeficient mice (J:NU, 2 months old, average body weight 25 g) were purchased from the Jackson Laboratory (Bar Harbor, Maine, USA). Animal study was performed in strict accordance with the recommendations in the Guide for the Care and Use of Laboratory Animals of the National Institutes of Health. Breast cancer xenograft was established by the orthotopic administration of 100 μl 4T1 cell solution (10^6 cells per injection) at the mammary fat pad of the second nipple of the left side of each mouse using a 27G½ needle. Anesthesia was maintained by mask inhalation of 1.5-2.0% isoflurane throughout the procedure.
In vivo and ex vivo NIR fluorescence (NIRF) imaging: When the tumor area reached 10 mm^2 within 14 days, nine tumor-bearing mice were administered with ICG, ICG-GNP I or ICG-GNP II, i.e., three mice for each probe, […] The mice administered with ICG-GNP II were imaged using a bioinspired imaging sensor developed for NIRF image-guided surgery. At each time point, the fluorescence from the primary tumor and surrounding tissues (background) of mice under 2% isoflurane were recorded at 37° C. as regions of interest using the IVIS. A ratio between the mean fluorescence from the tumor and background was assessed and expressed as a TBR. […] The fluorescence intensity of each organ or tissue was acquired using the IVIS and bioinspired imaging sensor.

[1] = Fluorescence intensity at various ICG concentrations in PBS (IVIS); assay type: physicochemical; conditions: 0.05 μM-100 μM ICG
Description: GNP I or GNP II dispersed in 1 ml of ICG in DI-H2O, with a GNP-to-ICG weight ratio of 20, were incubated for 2 hours at 25° C. The resulting suspension was centrifuged (13,000 rpm/5 min) to discard free ICG in the supernatant. The fluorescence intensity of naked ICG (ICG-free), ICG-loaded GNP I (ICG-GNP I) and GNP II (ICG-GNP II) at various ICG concentrations was recorded and quantified using an In Vivo Imaging System (IVIS, Perkin Elmer, Waltham, MA, USA) (ex 740/em 800 nm).

[2] = Fluorescence intensity of blood after intravenous administration; assay type: in vivo, healthy nude mice; conditions: 24-hour post-administration, equivalent to 2 mg/kg ICG
Description: Healthy nude mice were administered with either 100 μl PBS solutions of ICG-free or ICG-GNP I (equivalent to 2 mg/kg ICG) intravenously via retro-orbital injection. 100 μl of blood was collected from the lateral tail vein immediately and 24 hours after the administration, transferred to a 96-well plate, and analyzed their fluorescence intensity using the IVIS (n=3).

ICG concentration above which MFI decreases [1]: above 50 μM
ICG concentration at which MFI reaches a peak [1]: 10 µM
fluorescence of blood samples [2]: minimal fluorescence
Compound: CC1(C)C(/C=C/C=C/C=C/C=C2\N(CCCCS(=O)(=O)O)c3ccc4ccccc4c3C2(C)C)=[N+](CCCCS(=O)(=O)[O-])c2ccc3ccccc3c21 [ICG-free, indocyanine green]
differences in MFI between the tumor and background (4T1 tumor; 1 mg/kg dose): no measurable differences
TBR (tumor to background ratio) (4T1 tumor; during a 24-hour period, 2 mg/kg dose, IVIS): ~1.5
